{
  "source": "patent EP0210291A1",
  "about": "“Platinum complexes of antitumor agents” (AMERICAN CYANAMID COMPANY, priority 1985, dated 1987)",
  "tested_on": "lymphocytic leukemia P388",
  "assay": "Lymphocytic leukemia P388 test",
  "type": "in vivo, BDF/1 mice",
  "settings": "for Median Survival: mice with P388 leukemia; for T/Cx100: survival time treated/control",
  "method": "Lymphocytic leukemia P388 test\nThe animals used were BDF/1 mice all of one sex, weighing a minimum of 18 g and all within a 3 g weight range. There were 5 or 6 animals per test group. The tumor transplant was by intraperitoneal injection of 0.5 ml of dilute ascitic fluid containing 10⁶ cells of lymphocytic leukemia P388. The test compounds were administered intraperitoneally on days 1,5 and 9 relative to tumor inoculation, at various doses. The animals were weighed and survivors recorded on a regular basis for 30 days. The median survival time and the ratio of survival time for treated (T)/control (C) animals were calculated. The positive control compound was either 1,4-dihydroxy-5,8-bis[[2-(2-hydroxyethylamino)ethyl]-amino]anthraquinone dihydrochloride or Cisplatin.",
  "key": {"[1]": {"settings": "Mus musculus, P388, ip, read-out: T/Cx100"}, "[2]": {"settings": "dose 0.2 mg/kg intraperitoneally on days 1, 5 and 9"}, "[3]": {"settings": "dose 0.6 mg/kg intraperitoneally on days 1, 5 and 9, 0.6 mg/kg"}, "[4]": {"settings": "dose 0.8 mg/kg intraperitoneally on days 1, 5 and 9, 0.8 mg/kg"}, "[5]": {"settings": "dose 1.2 mg/kg intraperitoneally on days 1, 5 and 9"}, "[6]": {"settings": "dose 1.25 mg/kg intraperitoneally on days 1, 5 and 9"}, "[7]": {"settings": "dose 1.5 mg/kg intraperitoneally on days 1, 5 and 9"}, "[8]": {"settings": "dose 2.5 mg/kg intraperitoneally on days 1, 5 and 9"}, "[9]": {"settings": "dose 50 mg/kg intraperitoneally on days 1, 5 and 9"}, "[10]": {"settings": "dose 200 mg/kg intraperitoneally on days 1, 5 and 9"}},
  "note": "Several values for one entry are separate records, joined by “and”; a condition that tells them apart may be missing. Equal entries are not always repeated. Structures can show the parent of a compound that is named as a salt.",
  "data": [
    {"molecule": "O=C1c2c(O)ccc(O)c2C(=O)c2c(NCCNCCO)ccc(NCCNCCO)c21", "note": "[1,4-dihydroxy-5,8-bis[[2-(2-hydroxyethylamino)ethyl]-amino]anthraquinone dihydrochloride]", "values": [
      {"measurement": "response vs control in vivo at 0.025 mg/kg", "setting": "[1]", "result": 110, "unit": "%"},
      {"measurement": "response vs control in vivo at 0.1 mg/kg", "setting": "[1]", "result": 136, "unit": "%"},
      {"measurement": "response vs control in vivo at 0.4 mg/kg", "setting": "[1]", "result": 153, "unit": "%"},
      {"measurement": "response vs control in vivo at 1.6 mg/kg", "setting": "[1]", "result": 212, "unit": "%"}
    ]},
    {"molecule": "N.N.[Cl][Pt][Cl]", "note": "[Cisplatin]", "values": [
      {"measurement": "Median Survival", "setting": "[2]", "result": 21, "unit": "days"},
      {"measurement": "T/Cx100", "setting": "[2]", "result": 210, "unit": "%"},
      {"measurement": "Median Survival", "setting": "[3]", "result": "21 days and 22.5 days"},
      {"measurement": "T/Cx100", "setting": "[3]", "result": "196% and 221%"},
      {"measurement": "Median Survival", "setting": "[4]", "result": "26.5 days and 23.5 days"},
      {"measurement": "T/Cx100", "setting": "[4]", "result": "217% and 235%"},
      {"measurement": "Median Survival", "setting": "[5]", "result": 22, "unit": "days"},
      {"measurement": "T/Cx100", "setting": "[5]", "result": 206, "unit": "%"},
      {"measurement": "Median Survival", "setting": "[6]", "result": 13.5, "unit": "days"},
      {"measurement": "T/Cx100", "setting": "[6]", "result": 132, "unit": "%"},
      {"measurement": "Median Survival", "setting": "[7]", "result": 22.5, "unit": "days"},
      {"measurement": "T/Cx100", "setting": "[7]", "result": 184, "unit": "%"},
      {"measurement": "Median Survival", "setting": "[8]", "result": 16, "unit": "days"},
      {"measurement": "T/Cx100", "setting": "[8]", "result": 150, "unit": "%"}
    ]},
    {"molecule": "hydrazinecarboximidamide, compound with platinum chloride (1:1)", "values": [
      {"measurement": "Median Survival", "setting": "[9]", "result": 20.5, "unit": "days"},
      {"measurement": "T/Cx100", "setting": "[9]", "result": 174, "unit": "%"},
      {"measurement": "Median Survival", "setting": "[10]", "result": 23, "unit": "days"},
      {"measurement": "T/Cx100", "setting": "[10]", "result": 195, "unit": "%"}
    ]}
  ]
}
